Experimental data published in US10807970B2 (priority 2016, dated 2020).
pKi: −log10 of the molar value. Like-named read-outs stand apart in the source and are kept apart here.

Target: human σ1 receptor (Homo sapiens, UniProt Q99720)
Test: Human σ1 receptor radioligand assay ([3H](+)-pentazocine, transfected HEK-293 membranes)
Type: binding
Design: μ and σ1 dual binding: key to the marks not given beside the values
Conditions: one class symbol for both Ki-σ1 (human σ1 receptor, A1) and Ki-μ (human μ-opioid receptor, A2)
Protocol: Human σ1 Receptor Radioligand Assay
To investigate binding properties of test compounds to human σ1 receptor, transfected HEK-293 membranes and [^3H](+)-pentazocine (Perkin Elmer, NET-1056), as the radioligand, were used. The assay was carried out with 7 μg of membrane suspension, 5 nM of [^3H](+)-pentazocine in either absence or presence of either buffer or 10 μM Haloperidol for total and non-specific binding, respectively. Binding buffer contained Tris-HCl 50 mM at pH 8. Plates were incubated at 37° C. for 120 minutes. After the incubation period, the reaction mix was then transferred to MultiScreen HTS, FC plates (Millipore), filtered and plates were washed 3 times with ice-cold 10 mM Tris-HCL (pH7.4). Filters were dried and counted at approximately 40% efficiency in a MicroBeta scintillation counter (Perkin-Elmer) using EcoScint liquid scintillation cocktail

[1] = read-out: μ and σ1 dual binding

Sequence of human σ1 receptor (Q99720 whole entry): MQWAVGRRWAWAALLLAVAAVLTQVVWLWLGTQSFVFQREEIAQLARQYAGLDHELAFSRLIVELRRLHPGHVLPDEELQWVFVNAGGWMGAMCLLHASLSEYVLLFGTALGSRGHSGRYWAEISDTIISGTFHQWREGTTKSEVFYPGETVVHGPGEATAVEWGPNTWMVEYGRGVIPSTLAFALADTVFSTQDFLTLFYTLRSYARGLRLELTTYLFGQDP

| Structure (SMILES) | μ and σ1 dual binding | pKi (μ and σ1 dual binding) | also measured |
| --- | --- | --- | --- |
| CCC1(N2CCN(CCc3ccncc3)CC2)CCOC(C)(C)C1 (stereo not drawn) [Example 82, 1-(4-ethyl-2,2-dimethyltetrahydro-2H-pyran-4-yl)-4-(2-(pyridin-4-yl)ethyl)piperazine] | ++ | – | – |
| CC1(C)CC(C(=O)c2ccccn2)(N2CCN(CCOCC(F)(F)F)CC2)CCO1 (stereo not drawn) [Example 69, (2,2-dimethyl-4-(4-(2-(2,2,2-trifluoroethoxy)ethyl)piperazin-1-yl)tetrahydro-2H-pyran-4-yl)(pyridin-2-yl)methanone] | ++ | – | – |
| CC(C)OCCN1CCC(C2(c3ccccn3)CCOC(C)(C)C2)CC1 (stereo not drawn) [Example 75, 2-(4-(1-(2-isopropoxyethyl)piperidin-4-yl)-2,2-dimethyltetrahydro-2H-pyran-4-yl)pyridine] | – | < 6.30 | – |
| CCC1(N2CCN(CCc3ccccn3)CC2)CCOC(C)(C)C1 (stereo not drawn) [Example 87, 1-(4-ethyl-2,2-dimethyltetrahydro-2H-pyran-4-yl)-4-(2-(pyridin-2-yl)ethyl)piperazine] | ++ | – | – |
| CC(C)OCCN1CCN([C@]2(C(=O)c3ccccn3)CCOC2)CC1 [Example 242, (R)-(3-(4-(2-isopropoxyethyl)piperazin-1-yl)tetrahydrofuran-3-yl)(pyridin-2-yl)methanone] | ++ | – | – |
| CC1(C)C[C@](C(=O)c2ccccn2)(N2CCN(Cc3ccccc3)CC2)CCO1 [Example 3, (R)-(4-(4-benzylpiperazin-1-yl)-2,2-dimethyltetrahydro-2H-pyran-4-yl)(pyridin-2-yl)methanone] | – | > 7.00 | – |
| COCCN1CCN(C2(C(=O)c3ccccn3)CCOC(C)(C)C2)CC1 (stereo not drawn) [Example 68, (4-(4-(2-methoxyethyl)piperazin-1-yl)-2,2-dimethyltetrahydro-2H-pyran-4-yl)(pyridin-2-yl)methanone] | – | – | pKi [1]: < 6.30 |
| CC[C@]1(N2CCN(CCc3ccccc3)CC2)CCOC(C)(C)C1 [Example 112, (S)-1-(4-ethyl-2,2-dimethyltetrahydro-2H-pyran-4-yl)-4-phenethylpiperazine] | – | – | pKi [1]: > 6.30 |
| CC1(C)CC(C(=O)c2ccccn2)(N2CCN(Cc3ccccc3)CC2)CC(C)(C)O1 [Example 17, (4-(4-benzylpiperazin-1-yl)-2,2,6,6-tetramethyltetrahydro-2H-pyran-4-yl)(pyridin-2-yl)methanone] | ++ | – | – |
| CC(C)COCCN1CCN([C@]2(C(=O)c3ccccn3)CCOC(C)(C)C2)CC1 [Example 137, (R)-(4-(4-(2-isobutoxyethyl)piperazin-1-yl)-2,2-dimethyltetrahydro-2H-pyran-4-yl)(pyridin-2-yl)methanone] | – | > 6.30 | – |
| CC(C)OCCN1CCN([C@@]2(C(=O)c3ccccn3)CCOC2)CC1 [Example 243, (S)-(3-(4-(2-isopropoxyethyl)piperazin-1-yl)tetrahydrofuran-3-yl)(pyridin-2-yl)methanone] | ++ | – | – |
| CC(c1ccc(F)cc1)N1CCN(C2(C(=O)c3ccccn3)CCOC(C)(C)C2)CC1 (stereo not drawn) [Example 63, (4-(4-(1-(4-fluorophenyl)ethyl)piperazin-1-yl)-2,2-dimethyltetrahydro-2H-pyran-4-yl)(pyridin-2-yl)methanone] | ++ | – | – |
| CC(C)OCCN1CCC([C@]2(C(=O)c3ccccn3)CCO[C@H](C)C2)CC1 [Example 249, ((2R,4S)-4-(1-(2-isopropoxyethyl)piperidin-4-yl)-2-methyltetrahydro-2H-pyran-4-yl)(pyridin-2-yl)methanone] | ++ | – | – |
| C[C@@H]1C[C@](C(=O)c2ccccn2)(N2CCN(CCc3ccccc3)CC2)CCO1 [Example 240, ((2R,4R)-2-methyl-4-(4-phenethylpiperazin-1-yl)tetrahydro-2H-pyran-4-yl)(pyridin-2-yl)methanone] | ++ | – | – |
| CC1(C)CC(CCO)(N2CCN(CCc3ccccc3)CC2)CCO1 (stereo not drawn) [Example 48, 2-(2,2-dimethyl-4-(4-phenethylpiperazin-1-yl)tetrahydro-2H-pyran-4-yl)ethanol] | – | – | pKi [1]: < 6.30 |
| CC(C)CCN1CCCN(C2(C(=O)c3ccccn3)CCOC(C)(C)C2)CC1 (stereo not drawn) [Example 86, (4-(4-isopentyl-1,4-diazepan-1-yl)-2,2-dimethyltetrahydro-2H-pyran-4-yl)(pyridin-2-yl)methanone] | – | > 7.00 | – |
| CCC1(C2CCN(Cc3ccccc3)CC2)CCOC(C)(C)C1 (stereo not drawn) [Example 167, 1-Benzyl-4-(4-ethyl-2,2-dimethyltetrahydro-2H-pyran-4-yl)piperidine] | ++ | – | – |
| CC1(C)CC(C(=O)c2ccccn2)(N2CCN(CCc3ccccc3F)CC2)CCO1 (stereo not drawn) [Example 111, (4-(4-(2-fluorophenethyl)piperazin-1-yl)-2,2-dimethyltetrahydro-2H-pyran-4-yl)(pyridin-2-yl)methanone] | – | > 6.30 | – |
| CC(C)OCCN1CCN(C2(C(=O)c3ccccn3)CCOCC2)CC1 [Example 185, (4-(4-(2-isopropoxyethyl)piperazin-1-yl)tetrahydro-2H-pyran-4-yl)(pyridin-2-yl)methanone] | ++ | – | – |
| CC(C)OCCN1CCC([C@@]2(C(=O)c3ccccn3)CCO[C@@H](C)C2)CC1 [Example 172] | ++ | – | – |

| Structure (SMILES) | μ and σ1 dual binding | pKi (μ and σ1 dual binding) | also measured |
| --- | --- | --- | --- |
| CC(C)OCCN1CCN(C2(C(=O)c3ccccn3)CCOC2)CC1 (stereo not drawn) [Example 74, (3-(4-(2-isopropoxyethyl)piperazin-1-yl)tetrahydrofuran-3-yl)(pyridin-2-yl)methanone] | ++ | – | – |
| CC(C)OCCN1CCN([C@]2(C(=O)c3ccccn3)CCOC(C)(C)C2)CC1 [Example 139, (R)-(4-(4-(2-isopropoxyethyl)piperazin-1-yl)-2,2-dimethyltetrahydro-2H-pyran-4-yl)(pyridin-2-yl)methanone] | – | – | pKi [1]: < 6.30 |
| CC1(C)CC(C(=O)c2ccccn2)(N2CCN(CCc3ccncc3Cl)CC2)CCO1 (stereo not drawn) [Example 57, (4-(4-(2-(3-chloropyridin-4-yl)ethyl)piperazin-1-yl)-2,2-dimethyltetrahydro-2H-pyran-4-yl)(pyridin-2-yl)methanone] | – | > 6.30 | – |
| c1ccc(CN2CCN(C3(c4ccccc4)CCOCC3)CC2)cc1 [Example 30, 1-benzyl-4-(4-phenyltetrahydro-2H-pyran-4-yl)piperazine] | ++ | – | – |
| CC[C@@]1(N2CCN(CCc3ccccc3)CC2)CCOC(C)(C)C1 [Example 113, (R) 1-(4-ethyl-2,2-dimethyltetrahydro-2H-pyran-4-yl)-4-phenethylpiperazine] | ++ | – | – |
| C[C@H]1C[C@@](C(=O)c2ccccn2)(N2CCN(CCc3ccccc3F)CC2)CCO1 [Example 170] | – | > 6.30 | – |
| O=C(c1ccccn1)C1(N2CCN(Cc3ccccc3)CC2)CCOCC1 [Example 8, (4-(4-benzylpiperazin-1-yl)tetrahydro-2H-pyran-4-yl)(pyridin-2-yl)methanone] | ++ | – | – |
| CC1(C)CC(C2CC2)(N2CCN(CCc3ccccc3)CC2)CCO1 (stereo not drawn) [Example 44, 1-(4-cyclopropyl-2,2-dimethyltetrahydro-2H-pyran-4-yl)-4-phenethylpiperazine] | – | > 6.30 | – |
| CC1(C)CC(C)(N2CCN(CCc3ccccc3)CC2)CCO1 (stereo not drawn) [Example 53, 1-phenethyl-4-(2,2,4-trimethyltetrahydro-2H-pyran-4-yl)piperazine] | ++ | – | – |
| CC(C)CN1CCN(C2(C(=O)c3ccccc3)CCOC3(CCCC3)C2)CC1 (stereo not drawn) [Example 7, (9-(4-isobutylpiperazin-1-yl)-6-oxaspiro[4.5]decan-9-yl)(phenyl)methanone] | – | > 7.00 | – |
| CCC1(N2CCN(Cc3ccc(C#N)cc3)CC2)CCOCC1 [Example 174, 4-((4-(4-ethyltetrahydro-2H-pyran-4-yl)piperazin-1-yl)methyl)benzonitrile] | ++ | – | – |
| CCC1(N2CCN(CCc3cccnc3)CC2)CCOC(C)(C)C1 (stereo not drawn) [Example 83, 1-(4-ethyl-2,2-dimethyltetrahydro-2H-pyran-4-yl)-4-(2-(pyridin-3-yl)ethyl)piperazine] | ++ | – | – |
| CC(C)OCCN1CCN([C@@]2(C(=O)c3ccccn3)CCO[C@H](C)C2)CC1 [Example 95] | ++ | – | – |
| CCC1(N2CCN(CCOC(C)C)CC2)CCOCC1 [Example 176, 1-(4-ethyltetrahydro-2H-pyran-4-yl)-4-(2-isopropoxyethyl)piperazine] | ++ | – | – |
| N#Cc1cccc(CN2CCN(C3(C(=O)c4ccccn4)CCOCC3)CC2)c1 [Example 193, 3-((4-(4-picolinoyltetrahydro-2H-pyran-4-yl)piperazin-1-yl)methyl)benzonitrile] | – | – | pKi [1]: < 6.30 |
| CC1(C)CC(C(=O)c2ccccn2)(N2CCN(CCc3ncccc3F)CC2)CCO1 (stereo not drawn) [Example 55, (4-(4-(2-(3-fluoropyridin-2-yl)ethyl)piperazin-1-yl)-2,2-dimethyltetrahydro-2H-pyran-4-yl)(pyridin-2-yl)methanone] | ++ | – | – |
| CC(C)OCCN1CCC([C@@]2(C(=O)c3ccccn3)CCO[C@@H](C)C2)CC1 [Example 248, ((2S,4R)-4-(1-(2-isopropoxyethyl)piperidin-4-yl)-2-methyltetrahydro-2H-pyran-4-yl)(pyridin-2-yl)methanone] | – | > 6.30 | – |
| CC1(C)CC(c2ccccn2)(C2CCN(Cc3ccccc3)CC2)CCO1 (stereo not drawn) [Example 125, 2-(4-(1-benzylpiperidin-4-yl)-2,2-dimethyltetrahydro-2H-pyran-4-yl)pyridine] | – | < 6.30 | – |
| CC(C)CCN1CCC([C@@]2(C(=O)c3ccccn3)CCOC(C)(C)C2)CC1 [Example 115, (R)-(4-(1-isopentylpiperidin-4-yl)-2,2-dimethyltetrahydro-2H-pyran-4-yl)(pyridin-2-yl)methanone] | – | > 6.30 | – |
